From US5969115A, “Bisazo dyes and their preparation and use” (Ilford Imaging Switzerland GMBH, priority 1997, dated 1999)

Columns and labels:
Assay type in all cases: physicochemical
[1] = Light fastness of printed samples (density loss after xenon lamp irradiation); settings: for Density loss in %: xenon lamp, total illumination 20 kJoule/cm^2; for light fastness: printed samples, in words
Experimental: (§1) The present invention, as far as it relates to inks, is further illustrated by the following examples using dyes according to our invention described in Tables 1 and 2 and dyes representing the state of the art described in Tables 3 and 4. 100 g of each ink were prepared by heating the necessary amount of dye (3-7 g), glycerol (5 g), tetraethylenglycol (1.1 g). and a biocide solution (Promexal X50, available from Zeneca, Manchester, England) (1.2 g) together with water at a temperature of 50° C. under stirring for one hour. The resulting solution was cooled down to 20° C., pH was adjusted to 7.5 and passed through a Millipore® filter of 0.5 μm pore diameter. The dye quantity was adjusted in a way that the density of the printed images was the same for all dyes.
(§2) 30 g of gelatin with a high isoelectric point (type St 70,810, available from Deutsche Gelatinefabriken, Eberbach, Germany) were dissolved in 360 ml of deionised water. 1 g of a surfactant (Olin 10G, available from Olin Corporation, Norwalk, USA) were added to this solution. Immediately before coating 6.6 g of a solution of 2-(4-dimethyl-carbamoyl-pyridino)-ethanesulfonate (3%) were added and pH was adjusted to 6.5. 100 g/m^2 of this solution was then coated onto a resin coated paper support using a bar coater. The recording medium prepared in this way was dried for 12 hours.
(§3) The inks were then jetted onto this recording medium with an HP560 ink jet printer from Hewlett-Packard. The properties of the printed samples were evaluated later on.
The printed samples were irradiated in an Atlas Ci35A Weather-O-Meter® with a r 6500 W Xenon lamp until a total illumination of 20 kJoule/cm^2 was reached. The density loss was measured with an X-Rite® densitometer. It is expressed as % loss of initial density.

[2] = Absorption maximum in water
Text: The absorption maxima and the results of the tests (B) to (D) are listed in Table 6 for the dyes of the invention and in Table 7 for the dyes that are state of the art.

[3] = Dye solubility in deionised water; settings: for Solubility: deionised water, stirred 1 hour at 50° C., cooled to 20° C., Table 5; for solubility compared with previously known dyes 24 and 26: in words
Experimental: The dye was dispersed in deionised water and this dispersion was stirred for 1 hour at 50° C. Then the mixture was cooled down to 20° C., centrifuged and filtered. Dye solubility was calculated a) from visible spectral data of the filtered solution or b) based on the dried filter residue.

[4] = Color co-ordinates (L*a*b*) of printed samples; settings: for neutral black (color co-ordinates): in words
Experimental: as §1, §2, §3
L*a*b*-values were measured on printed samples using a Gretag SPM 100 spectrometer, available from Gretag AG, Regensdorf, Switzerland.
Black dyes show a neutral hue if the values of a* and b*out of the L*a*b* color co-ordinates are zero.

| SMILES | Density loss in % ([1]; Table 6) | HD max in water ([2]; Table 6) | Solubility [3] | solubility compared with previously known dyes 24 and 26 [3] | L*a*b*-value: L* ([4]; Table 6) | L*a*b*-value: a* ([4]; Table 6) | L*a*b*-value: b* ([4]; Table 6) | light fastness [1] | neutral black (color co-ordinates) [4] | HD max in water ([2]; state of the art dyes, Table 7) | L*a*b*-value: L* ([4]; state of the art dyes, Table 7) | L*a*b*-value: a* ([4]; state of the art dyes, Table 7) | L*a*b*-value: b* ([4]; state of the art dyes, Table 7) | Density loss in % ([1]; state of the art dyes, Table 7) |
| --- | --- | --- | --- | --- | --- | --- | --- | --- | --- | --- | --- | --- | --- | --- |
| O=S(=O)(O)CCNc1ccc2cc(S(=O)(=O)O)c(N=Nc3ccc(N=Nc4ccc(S(=O)(=O)O)cc4)c4ccc(S(=O)(=O)O)cc34)c(O)c2c1 [Compound 3] | 5% | 575 nm | > 20 g per 100 ml | considerably higher solubility | 4.3 | 2.5 | -2.5 | – | – | – | – | – | – | – |
| O=S(=O)(O)CCNc1ccc2cc(S(=O)(=O)O)c(N=Nc3ccc(N=Nc4ccc(S(=O)(=O)O)cc4)c4ccc(S(=O)(=O)O)cc34)c(O)c2c1 [Compound 5] | 6% | 576 nm | 16 g per 100 ml | – | 7.3 | 2.0 | -2.4 | excellent light fastness | neutral blacks | – | – | – | – | – |
| O=S(=O)(O)CCNc1ccc2cc(S(=O)(=O)O)c(N=Nc3ccc(N=Nc4ccc(CS(=O)(=O)O)cc4)c4ccc(S(=O)(=O)O)cc34)c(O)c2c1 [Compound 8] | 14% | 577 nm | > 20 g per 100 ml | considerably higher solubility | 17.3 | 4.0 | -6.6 | excellent light fastness | neutral blacks | – | – | – | – | – |
| O=C(O)c1cc(N=Nc2ccc(N=Nc3c(S(=O)(=O)O)cc4ccc(NCCS(=O)(=O)O)cc4c3O)c3cc(S(=O)(=O)O)ccc23)cc(C(=O)O)c1 [Compound 16] | 1% | 580 nm | > 20 g per 100 ml | considerably higher solubility | 3.8 | 3.4 | 0.5 | – | – | – | – | – | – | – |
| Nc1ccc2cc(S(=O)(=O)O)c(N=Nc3ccc(N=Nc4cc(C(=O)O)cc(C(=O)O)c4)c4ccc(S(=O)(=O)O)cc34)c(O)c2c1 [Compound 24, reference compound] | – | – | 12 g per 100 ml | – | – | – | – | – | – | 571 nm | 27.0 | -0.7 | -8.8 | – |
| O=C(O)CCNc1ccc2cc(S(=O)(=O)O)c(N=Nc3ccc(N=Nc4cccc(C(=O)O)c4)c4ccc(S(=O)(=O)O)cc34)c(O)c2c1 [Compound 26, reference compound] | – | – | 17 g per 100 ml | – | – | – | – | – | – | 568 nm | 14.7 | 14.4 | -14.6 | 8% |
